# Assay results: the supplement of paper PMC10307832
# Assays:
# Test in all cases: relative viability (nuclei count vs DMSO), 5 days (fraction); higher = more cells survive
# [1] = compound: Cc1ccc2nc(NCCN)c3ncc(C)n3c2c1 + CC(C)C[C@H](NC(=O)[C@H](Cc1ccccc1)NC(=O)c1cnccn1)B(O)O [Bortezomib] (partner 0.002 µM)
# In short: (§1)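 After 5 days of treatment, lung cancer cells in 1536-well plates were fixed and stained in a single step (final 0.05% Triton X-100, 1% formaldehyde, 1 ug/ml Hoechst) and their nuclei counted on 4× images. Treatment had been applied by pin tool the day after seeding as one drug alone or as a fixed anchor-drug dose with five library-drug doses (not always all listed) in √10 steps. Relative viability is the nuclei count of treated wells divided by that of vehicle wells, and values are medians of duplicate plates.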
# [2] = compound: Cc1ccc2nc(NCCN)c3ncc(C)n3c2c1 + CS(=O)(=O)N1CCN(Cc2cc3nc(-c4cccc5[nH]ncc45)nc(N4CCOCC4)c3s2)CC1 [Pictilisib] (partner 1 µM)
# In short: as §1
# [3] = compound: Cc1ccc2nc(NCCN)c3ncc(C)n3c2c1 + O=C(c1cc(Cc2n[nH]c(=O)c3ccccc23)ccc1F)N1CCN(C(=O)C2CC2)CC1 [Olaparib] (partner 8 µM)
# In short: as §1
# [4] = compound: O=C(/C=C/c1ccccc1)NC(NC(=S)Nc1cccc2cccnc12)C(Cl)(Cl)Cl [Salubrinal] + Cc1nc(Nc2ncc(C(=O)Nc3c(C)cccc3Cl)s2)cc(N2CCN(CCO)CC2)n1 [Dasatinib] (partner 0.075 µM)
# In short: as §1
cell line,measurement,setting,value
NCI-H3122,relative viability,[1]; first compound 0.04 µM,0.957
same,relative viability,[1]; first compound 0.1265 µM,1.03
same,relative viability,[1]; first compound 0.4 µM,1.05
same,relative viability,[1]; first compound 1.265 µM,0.985
same,relative viability,[1]; first compound 4 µM,1.1
same,relative viability,[2]; first compound 0.04 µM,0.646
same,relative viability,[2]; first compound 0.1265 µM,0.585
same,relative viability,[2]; first compound 0.4 µM,0.541
same,relative viability,[2]; first compound 1.265 µM,0.735
same,relative viability,[2]; first compound 4 µM,0.672
same,relative viability,[3]; first compound 0.04 µM,0.653
same,relative viability,[3]; first compound 0.1265 µM,0.67
same,relative viability,[3]; first compound 0.4 µM,0.507
same,relative viability,[3]; first compound 1.265 µM,0.582
same,relative viability,[3]; first compound 4 µM,0.579
same,relative viability,[4]; first compound 0.08 µM,0.828
same,relative viability,[4]; first compound 0.253 µM,0.869
same,relative viability,[4]; first compound 0.8 µM,0.802
same,relative viability,[4]; first compound 2.53 µM,0.846
same,relative viability,[4]; first compound 8 µM,0.914
PC-14,relative viability,[1]; first compound 0.04 µM,0.957
same,relative viability,[1]; first compound 0.1265 µM,0.884
same,relative viability,[1]; first compound 0.4 µM,0.761
same,relative viability,[1]; first compound 1.265 µM,0.904
same,relative viability,[1]; first compound 4 µM,0.782
same,relative viability,[2]; first compound 0.04 µM,0.753
same,relative viability,[2]; first compound 0.1265 µM,0.736
same,relative viability,[2]; first compound 0.4 µM,0.757
same,relative viability,[2]; first compound 1.265 µM,0.481
same,relative viability,[2]; first compound 4 µM,0.583
same,relative viability,[3]; first compound 0.04 µM,0.278
same,relative viability,[3]; first compound 0.1265 µM,0.324
same,relative viability,[3]; first compound 0.4 µM,0.241
same,relative viability,[3]; first compound 1.265 µM,0.261
same,relative viability,[3]; first compound 4 µM,0.127
same,relative viability,[4]; first compound 0.08 µM,0.313
same,relative viability,[4]; first compound 0.253 µM,0.252
same,relative viability,[4]; first compound 0.8 µM,0.264
same,relative viability,[4]; first compound 2.53 µM,0.203
same,relative viability,[4]; first compound 8 µM,0.166
NCI-H2347,relative viability,[1]; first compound 0.04 µM,1.09
same,relative viability,[1]; first compound 0.1265 µM,0.919
same,relative viability,[1]; first compound 0.4 µM,0.932
same,relative viability,[1]; first compound 1.265 µM,1.14
same,relative viability,[1]; first compound 4 µM,1.07
same,relative viability,[2]; first compound 0.04 µM,0.762
same,relative viability,[2]; first compound 0.1265 µM,0.673
same,relative viability,[2]; first compound 0.4 µM,0.59
same,relative viability,[2]; first compound 1.265 µM,0.645
same,relative viability,[2]; first compound 4 µM,0.557
same,relative viability,[3]; first compound 0.04 µM,0.601
same,relative viability,[3]; first compound 0.1265 µM,0.566
same,relative viability,[3]; first compound 0.4 µM,0.485
same,relative viability,[3]; first compound 1.265 µM,0.525
same,relative viability,[3]; first compound 4 µM,0.501
same,relative viability,[4]; first compound 0.08 µM,0.295
same,relative viability,[4]; first compound 0.253 µM,0.327
same,relative viability,[4]; first compound 0.8 µM,0.317
same,relative viability,[4]; first compound 2.53 µM,0.346
same,relative viability,[4]; first compound 8 µM,0.318
NCI-H2228,relative viability,[1]; first compound 0.04 µM,1.11
same,relative viability,[1]; first compound 0.1265 µM,0.992
same,relative viability,[1]; first compound 0.4 µM,1.16
same,relative viability,[1]; first compound 1.265 µM,1.13
same,relative viability,[1]; first compound 4 µM,0.907
same,relative viability,[2]; first compound 0.04 µM,0.464
same,relative viability,[2]; first compound 0.1265 µM,0.592
same,relative viability,[2]; first compound 0.4 µM,0.417
same,relative viability,[2]; first compound 1.265 µM,0.272
same,relative viability,[2]; first compound 4 µM,0.369
same,relative viability,[3]; first compound 0.04 µM,0.721
same,relative viability,[3]; first compound 0.1265 µM,0.692
same,relative viability,[3]; first compound 0.4 µM,0.614
same,relative viability,[3]; first compound 1.265 µM,0.65
same,relative viability,[3]; first compound 4 µM,0.633
same,relative viability,[4]; first compound 0.08 µM,0.568
same,relative viability,[4]; first compound 0.253 µM,0.485
same,relative viability,[4]; first compound 0.8 µM,0.508
same,relative viability,[4]; first compound 2.53 µM,0.528
same,relative viability,[4]; first compound 8 µM,0.431
EKVX,relative viability,[1]; first compound 0.04 µM,0.998
same,relative viability,[1]; first compound 0.1265 µM,0.994
same,relative viability,[1]; first compound 0.4 µM,0.996
same,relative viability,[1]; first compound 1.265 µM,1.17
same,relative viability,[1]; first compound 4 µM,0.951
same,relative viability,[2]; first compound 0.04 µM,0.406
same,relative viability,[2]; first compound 0.1265 µM,0.356
same,relative viability,[2]; first compound 0.4 µM,0.416
same,relative viability,[2]; first compound 1.265 µM,0.329
same,relative viability,[2]; first compound 4 µM,0.338
same,relative viability,[3]; first compound 0.04 µM,0.941
same,relative viability,[3]; first compound 0.1265 µM,0.82
same,relative viability,[3]; first compound 0.4 µM,0.775
same,relative viability,[3]; first compound 1.265 µM,0.706
same,relative viability,[3]; first compound 4 µM,0.737
same,relative viability,[4]; first compound 0.08 µM,0.635
same,relative viability,[4]; first compound 0.253 µM,0.538
same,relative viability,[4]; first compound 0.8 µM,0.552
same,relative viability,[4]; first compound 2.53 µM,0.469
same,relative viability,[4]; first compound 8 µM,0.426
HOP-62,relative viability,[1]; first compound 0.04 µM,1.02
same,relative viability,[1]; first compound 0.1265 µM,0.692
same,relative viability,[1]; first compound 0.4 µM,0.613
same,relative viability,[1]; first compound 1.265 µM,0.86
same,relative viability,[1]; first compound 4 µM,0.432
same,relative viability,[2]; first compound 0.04 µM,0.829
same,relative viability,[2]; first compound 0.1265 µM,0.567
same,relative viability,[2]; first compound 0.4 µM,0.492
same,relative viability,[2]; first compound 1.265 µM,0.589
same,relative viability,[2]; first compound 4 µM,0.71
same,relative viability,[3]; first compound 0.04 µM,0.286
same,relative viability,[3]; first compound 0.1265 µM,0.457
same,relative viability,[3]; first compound 0.4 µM,0.436
same,relative viability,[3]; first compound 1.265 µM,0.417
same,relative viability,[3]; first compound 4 µM,0.42
same,relative viability,[4]; first compound 0.08 µM,0.662
same,relative viability,[4]; first compound 0.253 µM,0.586
same,relative viability,[4]; first compound 0.8 µM,0.703
same,relative viability,[4]; first compound 2.53 µM,0.742
same,relative viability,[4]; first compound 8 µM,0.478
NCI-H2126,relative viability,[1]; first compound 0.04 µM,1.15
same,relative viability,[1]; first compound 0.1265 µM,1.1
same,relative viability,[1]; first compound 0.4 µM,1.18
same,relative viability,[1]; first compound 1.265 µM,1.16
same,relative viability,[1]; first compound 4 µM,1.13
same,relative viability,[2]; first compound 0.04 µM,0.512
same,relative viability,[2]; first compound 0.1265 µM,0.512
same,relative viability,[2]; first compound 0.4 µM,0.489
same,relative viability,[2]; first compound 1.265 µM,0.453
same,relative viability,[2]; first compound 4 µM,0.456
same,relative viability,[3]; first compound 0.04 µM,0.924
same,relative viability,[3]; first compound 0.1265 µM,0.903
same,relative viability,[3]; first compound 0.4 µM,0.943
same,relative viability,[3]; first compound 1.265 µM,0.932
same,relative viability,[3]; first compound 4 µM,0.888
same,relative viability,[4]; first compound 0.08 µM,0.66
same,relative viability,[4]; first compound 0.253 µM,0.554
same,relative viability,[4]; first compound 0.8 µM,0.62
same,relative viability,[4]; first compound 2.53 µM,0.592
same,relative viability,[4]; first compound 8 µM,0.46
SW 1573,relative viability,[1]; first compound 0.04 µM,0.978
same,relative viability,[1]; first compound 0.1265 µM,1.08
same,relative viability,[1]; first compound 0.4 µM,0.965
same,relative viability,[1]; first compound 1.265 µM,1.2
same,relative viability,[1]; first compound 4 µM,0.55
same,relative viability,[2]; first compound 0.04 µM,0.449
same,relative viability,[2]; first compound 0.1265 µM,0.577
same,relative viability,[2]; first compound 0.4 µM,0.418
same,relative viability,[2]; first compound 1.265 µM,0.507
same,relative viability,[2]; first compound 4 µM,0.502
same,relative viability,[3]; first compound 0.04 µM,0.519
same,relative viability,[3]; first compound 0.1265 µM,0.404
same,relative viability,[3]; first compound 0.4 µM,0.504
same,relative viability,[3]; first compound 1.265 µM,0.42
same,relative viability,[3]; first compound 4 µM,0.177
same,relative viability,[4]; first compound 0.08 µM,0.553
same,relative viability,[4]; first compound 0.253 µM,0.488
same,relative viability,[4]; first compound 0.8 µM,0.627
same,relative viability,[4]; first compound 2.53 µM,0.402
same,relative viability,[4]; first compound 8 µM,0.417
